The source of these data is patent publication US5599966A, “Substituted ethanolamine esters” (BYK Nederland BV, priority 1992, dated 1997).

Structures can show the parent of a compound that is named as a salt.

The first experiment relates to guinea pig trachea. The experiment is described as follows: relaxing action on guinea pig trachea contracted beforehand with methacholine (in vitro, organ bath). Type of experiment: cell-based. As to conditions: Cavia porcellus, read-out: -log[EC50 (mol/l)] (converted). On the procedure: For this, the relaxing action on a guinea pig trachea which has been contracted beforehand with a suitable dose of methacholine is measured for the compounds to be investigated. The trachea of male guinea pigs (200-300 g) is removed and divided into individual segments and each segment is suspended in an organ bath with 118.5 mM NaCl, 4.7 mM KCl, 1.2 mM MgSO4, 2.5 mM CaCl2, 1.2 mM KH2 PO4, 25 mM NaHCO3 and 10 mM glucose at 37° C. Oxygen to which 5% of CO2 has been added is passed permanently through the solution. After stabilization, the trachea is contracted with a suitable dose of methacholine. Thereafter, a dose/effect curve is plotted with the test substances in a cumulative manner. The concentration (mol/l) which corresponds to 50% of the maximum effect (EC50) is then determined from this curve. This EC50 is thus a measure of the activity of the compounds according to the invention.
The serial number in the table agrees with the number of the compounds in the examples. The number n indicates the number of investigations.
For `Nc1c(Cl)cc(C(O)CNCCOCCOC(=O)Cc2ccccc2)cc1Cl` (stereo not shown) [Compound 106, {2-[2-[2-(4-Amino-3,5-dichlorophenyl)-2-hydroxyethylamino]ethoxy]ethyl}phenylacetate-fumarate], the EC50 is 7.94 nM.

Staying with this experiment, now noted: Cavia porcellus; in vitro relaxation of methacholine-contracted guinea pig trachea segments, cumulative dose/effect curve, 37° C., n = 3 to 6; read-out: -log[EC50 (mol/l)] (converted).
Regarding `O=C(CCCCCNCC(O)c1ccc(O)c(CO)c1)OCCCCc1ccccc1` (stereo not shown) [Compound 64, 4-Phenylbutyl 6-[2-hydroxy-2-(4-hydroxy-3-hydroxymethylphenyl)ethylamino]hexanoate-oxalate], the EC50 was 10 nM.
`Nc1ccc(C(O)CNCCCCCCOC(=O)Cc2ccccc2Cl)c(Cl)c1Cl` (stereo not shown) [Compound 82, {6-[2-(4-Amino-2,3-dichlorophenyl)-2-hydroxyethylamino]-1-hexyl}2-chlorophenylacetate-hemifumarate]: the EC50 was 10 nM.
Turning to `N#Cc1cc(C(O)CNCCCCCC(=O)OCCc2ccccc2)cc(Cl)c1N` (stereo not shown) [Compound 74, 2-Phenylethyl 6-[2-(4-amino-5-chloro-3-cyanophenyl)-2-hydroxyethylamino]hexanoate-hemifumarate], the EC50 is 3.98 nM.
Regarding `Nc1c(Cl)cc(C(O)CNCCCCCCOC(=O)Cc2cccc3ccccc23)cc1Cl` (stereo not shown) [Compound 34, {6-[2-(4-Amino-3,5-dichlorophenyl)-2-hydroxyethylamino]-1-hexyl}1-naphthylacetate-maleate], the EC50 is 3.16 nM.
For `Nc1c(Cl)cc(C(O)CNCCCCCC(=O)OCCc2ccccn2)cc1Cl` (stereo not shown) [Compound 32, 2-(2-Pyridyl)ethyl6-[2-(4-amino-3,5-dichlorophenyl)-2-hydroxyethylamino]hexanoate-hemifumarate], the EC50 is 15.8 nM.
Still for that read-out and setting: as for `Nc1c(Cl)cc(C(O)CNCCCCCCOC(=O)CCc2ccc(O)cc2)cc1Cl` (stereo not shown) [Compound 17, {6-[2-(4-Amino-3,5-dichlorophenyl)-2-hydroxyethylamino]-1-hexyl}[3-(4-hydroxyphenyl)]propionate-hydrochloride], the figure is 20 nM; as for `Nc1c(Cl)cc(C(O)CNCCCCCC(=O)OCCc2ccc(O)cc2)cc1Cl` (stereo not shown) [Compound 37, 2-(4-Hydroxyphenyl)ethyl 6-[2-(4-amino-3,5-dichlorophenyl)-2-hydroxyethylamino]hexanoate], 2 nM; as for `Nc1c(Cl)cc(C(O)CNCCCCCC(=O)OCCc2c[nH]c3ccccc23)cc1Cl` (stereo not shown) [Compound 103, 2-(3-Indolyl)ethyl 6-[2-(4-amino-3,5-dichlorophenyl)-2-hydroxyethylamino]hexanoate-hemifumarate], 3.16 nM.
Regarding `Nc1c(Cl)cc(C(O)CNCCCCCC(=O)OCCc2cccc3ccccc23)cc1Cl` (stereo not shown) [Compound 19, 2-(1-Naphthyl)ethyl 6-[2-(4-amino-3,5-dichlorophenyl)-2-hydroxyethylamino]hexanoate], the EC50 is 6.31 nM.
